SMILES strings stand for the structures. Read-outs that look alike come from different tables or passages of the source. Where a SMILES comes first, the peptide text is derived from it. Bridges are numbered along the chain shown (N, C = ends). [ ]: non-standard residue; d: D form. Nle = CCCC[C@H](N)C(=O)O Some results are limits rather than exact numbers.

The target of data set [1] is T1, human Kv1.1 (Homo sapiens, UniProt Q09470).
T1 construct: expressed in transfected cells; host or cells: CHO
T1 sequence (Q09470 whole entry): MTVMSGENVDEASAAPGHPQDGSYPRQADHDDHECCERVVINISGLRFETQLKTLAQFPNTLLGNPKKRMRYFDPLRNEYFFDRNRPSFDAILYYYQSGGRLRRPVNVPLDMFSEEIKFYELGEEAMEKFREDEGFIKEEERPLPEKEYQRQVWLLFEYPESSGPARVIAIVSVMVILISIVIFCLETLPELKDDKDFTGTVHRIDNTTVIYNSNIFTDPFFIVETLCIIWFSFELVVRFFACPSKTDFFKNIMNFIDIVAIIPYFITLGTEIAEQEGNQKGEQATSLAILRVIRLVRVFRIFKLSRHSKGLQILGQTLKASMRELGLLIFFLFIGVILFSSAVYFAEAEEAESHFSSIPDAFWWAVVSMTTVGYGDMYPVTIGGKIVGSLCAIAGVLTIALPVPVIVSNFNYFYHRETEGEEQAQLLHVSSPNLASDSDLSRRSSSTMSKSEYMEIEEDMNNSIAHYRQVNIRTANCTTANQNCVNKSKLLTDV
The data set can be described thus: cell-based.

Data set [2] deals with T2, human Kv1.2 (Homo sapiens, UniProt P16389).
T2 construct: expressed in transfected cells; host or cells: CHO
T2 sequence (P16389 whole entry): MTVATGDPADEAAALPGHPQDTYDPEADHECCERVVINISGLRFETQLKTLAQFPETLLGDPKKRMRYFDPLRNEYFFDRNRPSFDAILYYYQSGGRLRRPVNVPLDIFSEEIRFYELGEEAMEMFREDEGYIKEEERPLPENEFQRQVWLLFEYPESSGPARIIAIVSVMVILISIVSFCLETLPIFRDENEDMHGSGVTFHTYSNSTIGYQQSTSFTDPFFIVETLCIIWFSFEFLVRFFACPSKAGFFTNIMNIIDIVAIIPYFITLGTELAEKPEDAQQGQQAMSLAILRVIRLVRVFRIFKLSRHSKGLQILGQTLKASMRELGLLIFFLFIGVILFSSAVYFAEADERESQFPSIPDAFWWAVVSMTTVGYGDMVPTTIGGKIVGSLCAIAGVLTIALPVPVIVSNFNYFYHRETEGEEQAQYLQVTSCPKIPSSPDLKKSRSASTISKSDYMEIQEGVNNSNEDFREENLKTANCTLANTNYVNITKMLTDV
The data set can be described thus: cell-based.

Data set [3] addresses T3, human Kv1.6 (Homo sapiens, UniProt P17658).
T3 construct: expressed in transfected cells; host or cells: CHO
The data set can be described thus: cell-based.

In data set [4] the target is Rat whole blood (Rattus norvegicus, UniProt P15384). The format is cell-based.
Sequence of Rat whole blood (P15384 whole entry): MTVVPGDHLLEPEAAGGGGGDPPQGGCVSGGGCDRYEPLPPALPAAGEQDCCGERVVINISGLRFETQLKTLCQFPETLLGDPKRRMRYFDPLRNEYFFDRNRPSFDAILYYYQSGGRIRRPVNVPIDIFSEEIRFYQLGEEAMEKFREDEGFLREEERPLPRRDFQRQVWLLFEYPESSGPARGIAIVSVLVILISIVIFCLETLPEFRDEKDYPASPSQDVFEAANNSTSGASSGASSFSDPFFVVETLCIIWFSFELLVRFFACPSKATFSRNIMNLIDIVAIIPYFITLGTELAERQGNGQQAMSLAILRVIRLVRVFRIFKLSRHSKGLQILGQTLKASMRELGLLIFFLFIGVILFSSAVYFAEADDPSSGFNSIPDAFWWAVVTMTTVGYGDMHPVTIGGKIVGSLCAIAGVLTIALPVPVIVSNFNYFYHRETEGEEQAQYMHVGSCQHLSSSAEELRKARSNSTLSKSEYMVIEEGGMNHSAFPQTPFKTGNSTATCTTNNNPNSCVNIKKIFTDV
For data set [5], the system named is KLH ear inflammation model in rats. The format is in vivo, rat.
For data set [6], the target named is T4, human Kv1.3 voltage-gated K+ channel (Homo sapiens, UniProt P22001).
T4 construct: host or cells: CHO-DUKX
T4 sequence (P22001 whole entry): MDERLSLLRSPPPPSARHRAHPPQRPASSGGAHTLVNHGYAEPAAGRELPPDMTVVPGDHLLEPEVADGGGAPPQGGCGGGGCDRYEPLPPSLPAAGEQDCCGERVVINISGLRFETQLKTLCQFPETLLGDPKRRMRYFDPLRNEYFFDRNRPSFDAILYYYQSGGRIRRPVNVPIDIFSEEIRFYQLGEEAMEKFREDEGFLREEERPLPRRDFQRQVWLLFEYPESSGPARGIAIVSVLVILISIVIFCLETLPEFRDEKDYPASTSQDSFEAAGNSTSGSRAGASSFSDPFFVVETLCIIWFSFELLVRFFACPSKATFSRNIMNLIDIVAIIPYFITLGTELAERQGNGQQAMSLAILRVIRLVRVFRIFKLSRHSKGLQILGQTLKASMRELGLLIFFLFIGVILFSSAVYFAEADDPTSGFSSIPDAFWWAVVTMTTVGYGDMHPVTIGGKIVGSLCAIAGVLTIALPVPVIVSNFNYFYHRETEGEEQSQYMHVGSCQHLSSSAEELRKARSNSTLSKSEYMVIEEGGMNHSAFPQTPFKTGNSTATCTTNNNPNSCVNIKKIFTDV
The data set can be described thus: Kv1.3 blocker activity in FLIPR thallium assay. The format is cell-based. As for the experimental part:
A human Kv1.3 voltage-gated K+ channel cell line was purchased from Perkin Elmer (#TDS-AX-010-C-1). The cell line is based on CHO-DUKX cells stably transfected with the human Kv1.3 voltage-gated K+ channel.
The cell line was grown in MEMα with nucleotides, GlutaMAX (Gibco #32571028), 10% Foetal Bovine Serum (FBS), 0.4 mg/ml Geneticin, 100 units/ml Penicillin, and 100 μg/ml Streptomycin and seeded at 10.000 cells/well in black poly-D-lysine-coated 96 well plates.
The FluxOR™ Potassium Ion Channel Assay (Invitrogen #F10016) was used to quantitate flux of thallium ions into the cells as a response to Kv1.3 activation with a stimulus buffer causes depolarization of the cell membrane, thereby generating a fluorescent signal, proportional to channel activity. The assay was performed as described by the assay kit manufacturer including a compound pre-incubation step (30 min, 37° C., 5% CO2) in assay buffer containing 0.02% W/v casein from bovine milk (Sigma #C4765) prior to cell membrane depolarization using a final stimuli buffer composition corresponding to 0.2× FluxOR™ chloride-free buffer, 5 mM K2SO4, 1 mM Tl2SO4. The fluorescence responses were recorded and quantified (maximum response at 50 s, 37° C.) using the FLIPR® Tetra High Throughput Screening System (Molecular Devices, Inc.).
IC50 can be regarded as a measure of potency of inhibition for the respective compound. The IC50 value is a measure of the concentration of an inhibitor required to achieve half of that compound's maximal inhibition of ion channel activity in a given assay.

Data set [7] can be described thus: Pharmacokinetic characterisation after single s.c. injection in Sprague Dawley rats. The following applies: male, rat, plasma, sc, 100 nmol/kg. As for the experimental part: Sprague Dawley (males with a body weight of approximately 250-350 g) were given a single subcutaneous (s.c.) injection of each peptide to be tested.
Following s.c. administration of the selected compounds (dose 100 nmol/kg, dosing volume either 2 mL/kg), blood samples were drawn at 5 min, 15 min, 30 min, 60 min, 2 h, 3 h, 4 h, 6 h, 8 h post-dose. At each sampling time point, samples from the rats were drawn by sublingual bleeding. After last sampling the rats were sacrificed by O2/CO2 anaesthesia. The dosing vehicle was 10 mM phosphate, 0.8% NaCl, 0.05% Polysorbate 20 (pH 6.0).
Plasma samples were analyzed after solid phase extraction (SPE) by liquid chromatography mass spectrometry (LC-MS/MS). Mean plasma concentrations were used for calculation of the pharmacokinetic parameters using the non-compartmental approach in Phoenix WinNonlin 6.4 or a later version. Plasma terminal elimination half-life (T½) was determined as In(2)/λz where λz is the magnitude of the slope of the log linear regression of the log concentration versus time profile during the terminal phase. AUCinf is the area under the plasma concentration—time curve extrapolated to infinity (AUCinf=AUClast+Clast/λz, where Clast is the last observed plasma concentration). Cmax is the maximum observed concentration, occurring at Tmax.

The mark [8] stands for this setting: ratio of patch clamp IC50 values.
The mark [9] stands for this setting: IL-17A release, thapsigargin, 24 Hr, at least 2 replicates.
Setting [10] is: 100 nmol/kg SC 24 hrs prior to KLH ear challenge, +/− SD.

T3 sequence (P17658 whole entry): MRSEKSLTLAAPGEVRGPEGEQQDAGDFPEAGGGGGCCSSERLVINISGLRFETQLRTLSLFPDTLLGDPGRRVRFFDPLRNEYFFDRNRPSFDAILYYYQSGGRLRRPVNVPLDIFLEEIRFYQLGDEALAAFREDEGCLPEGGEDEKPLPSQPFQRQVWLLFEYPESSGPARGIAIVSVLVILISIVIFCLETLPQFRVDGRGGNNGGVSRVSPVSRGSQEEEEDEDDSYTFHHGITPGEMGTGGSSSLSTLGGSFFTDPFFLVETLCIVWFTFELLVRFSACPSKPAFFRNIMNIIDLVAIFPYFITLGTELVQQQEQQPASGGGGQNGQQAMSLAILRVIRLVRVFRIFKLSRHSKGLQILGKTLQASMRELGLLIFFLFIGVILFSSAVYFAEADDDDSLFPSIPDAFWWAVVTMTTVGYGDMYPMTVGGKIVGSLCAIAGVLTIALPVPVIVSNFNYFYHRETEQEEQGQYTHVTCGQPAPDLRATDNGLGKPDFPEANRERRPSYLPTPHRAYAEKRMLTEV

As usually defined, the IC50 is the concentration that gives 50% inhibition. With `CCCC[C@@H]1NC(=O)[C@@H]2CSSC[C@H](NC(=O)[C@H](CCCNC(=N)N)NC(=O)[C@H](CCCC)NC(=O)[C@H](CC(=O)O)NC(=O)[C@@H](NC(=O)[C@@H](N)CC(N)=O)[C@@H](C)CC)C(=O)N[C@@H](CO)C(=O)N[C@@H](C)C(=O)N[C@@H](CO)C(=O)N[C@@H](C(C)C)C(=O)N[C@@H](CCC(=O)O)C(=O)N[C@H]3CSSC[C@H](NC(=O)[C@H](CCCCN)NC(=O)[C@H](CCCCN)NC(=O)[C@H](CC(N)=O)NC1=O)C(=O)N[C@@H](CCCCN)C(=O)N[C@H](C(=O)N[C@@H](Cc1ccc(O)cc1)C(=O)N1CCC[C@H]1C(=O)N[C@@H](CCCNC(=N)N)C(=O)O)CSSC[C@H](NC(=O)[C@H](CCCCN)NC(=O)[C@H](CCC(N)=O)NC(=O)[C@H](CCCCN)NC3=O)C(=O)N[C@@H](CC(C)C)C(=O)N[C@@H](CCCCN)C(=O)N[C@@H](C)C(=O)N[C@@H]([C@@H](C)CC)C(=O)NCC(=O)N[C@@H](CO)C(=O)N[C@@H]([C@@H](C)CC)C(=O)N[C@@H](Cc1ccccc1)C(=O)NCC(=O)N[C@@H](CCCCN)C(=O)N2` [compound 91] (H-NID[Nle]RCSASVECKQKCLKAIGSIFGKC[Nle]NKKCKCYPR-OH; disulfide 6-27, 12-32, 16-34), the “Selectivity ratio Kv1.1/Kv1.3” value in data set [1] (setting [8]) is recorded as above 11300. The “Selectivity ratio Kv1.2/Kv1.3” value in data set [2] (setting [8]) amounted to 7756. Moreover, the “Selectivity ratio Kv1.6/Kv1.3” value in data set [3] (setting [8]) is recorded as above 11300. For the same compound, in data set [4] (setting [9]), the IC50 is 1200 pM. In data set [5] (setting [10]), the “% inhibition of ear thickness (AUC of Δ ear thickness 0-48 hours)” value is on record as 39.6%.

For the compound `CCCC[C@@H]1NC(=O)[C@@H]2CSSC[C@H](NC(=O)[C@H](CCCNC(=N)N)NC(=O)[C@H](CCCC)NC(=O)[C@H](CCC(=O)O)NC(=O)[C@@H](NC(=O)[C@@H]3CCCN3)[C@@H](C)CC)C(=O)N[C@@H](CO)C(=O)N[C@@H](C)C(=O)N[C@@H](CO)C(=O)N[C@@H](C(C)C)C(=O)N[C@@H](CCC(=O)O)C(=O)N[C@H]3CSSC[C@H](NC(=O)[C@H](CCCCN)NC(=O)[C@H](CCCCN)NC(=O)[C@H](CC(N)=O)NC1=O)C(=O)N[C@@H](CCCCN)C(=O)N[C@H](C(=O)N[C@@H](Cc1ccc(O)cc1)C(=O)N1CCC[C@H]1C(=O)N[C@@H](CCCNC(=N)N)C(=O)O)CSSC[C@H](NC(=O)[C@H](CCCCN)NC(=O)[C@H](CCC(N)=O)NC(=O)[C@H](CCCCN)NC3=O)C(=O)N[C@@H](CC(C)C)C(=O)N[C@@H](C)C(=O)N[C@@H](C)C(=O)N[C@@H]([C@@H](C)CC)C(=O)NCC(=O)N[C@@H](CO)C(=O)N[C@@H]([C@@H](C)CC)C(=O)N[C@@H](Cc1ccccc1)C(=O)NCC(=O)N[C@@H](CCCCN)C(=O)N2` [compound 95] (H-PIE[Nle]RCSASVECKQKCLAAIGSIFGKC[Nle]NKKCKCYPR-OH; disulfide 6-27, 12-32, 16-34), the “Selectivity ratio Kv1.1/Kv1.3” value in data set [1] is above 8600. Moreover, the “Selectivity ratio Kv1.2/Kv1.3” value in data set [2] was 5630. Also, the “Selectivity ratio Kv1.6/Kv1.3” value in data set [3] is recorded as above 8600. In data set [4], this compound returned an IC50 of 610 pM. The “% inhibition of ear thickness (AUC of Δ ear thickness 0-48 hours)” value in data set [5] (rat, in vivo) turned out to be 44.5%.

With `CCCC[C@H](NC(=O)[C@@H]1CCCN1)C(=O)N[C@@H](CCC(=O)O)C(=O)N[C@@H](CCCC)C(=O)N[C@@H](CCCNC(=N)N)C(=O)N[C@H]1CSSC[C@@H]2NC(=O)[C@H](CCCCN)NC(=O)CNC(=O)[C@H](Cc3ccccc3)NC(=O)[C@H]([C@@H](C)CC)NC(=O)[C@H](CO)NC(=O)CNC(=O)[C@H]([C@@H](C)CC)NC(=O)[C@H](C)NC(=O)[C@H](C)NC(=O)[C@H](CC(C)C)NC(=O)[C@@H]3CSSC[C@@H](C(=O)N[C@@H](Cc4ccc(O)cc4)C(=O)N4CCC[C@H]4C(=O)N[C@@H](CCCNC(=N)N)C(=O)O)NC(=O)[C@H](CCCCN)NC(=O)[C@H](CSSC[C@H](NC(=O)[C@H](CCC(=O)O)NC(=O)[C@H](C(C)C)NC(=O)[C@H](CO)NC(=O)[C@H](C)NC(=O)[C@H](CO)NC1=O)C(=O)N[C@@H](C)C(=O)N[C@@H](CCC(N)=O)C(=O)N[C@@H](CCCCN)C(=O)N3)NC(=O)[C@H](CCCCN)NC(=O)[C@H](CCCCN)NC(=O)[C@H](CC(N)=O)NC(=O)[C@H](CCCC)NC2=O` [compound 97] (H-P[Nle]E[Nle]RCSASVECAQKCLAAIGSIFGKC[Nle]NKKCKCYPR-OH; disulfide 6-27, 12-32, 16-34), the “Selectivity ratio Kv1.1/Kv1.3” value in data set [1] (setting [8]) is above 5500. The “Selectivity ratio Kv1.2/Kv1.3” value in data set [2] (setting [8]) stood at 5500. Also, the “Selectivity ratio Kv1.6/Kv1.3” value in data set [3] (setting [8]) is reported as above 5500. Moreover, inhibition in data set [4] (setting [9]) was half-maximal at 1200 pM (IC50). The “% inhibition of ear thickness (AUC of Δ ear thickness 0-48 hours)” value in data set [5] (setting [10]) is 48.9%.

The term AUC(0-inf) denotes total exposure, with the tail of the curve extrapolated. Low readings indicate low exposure, high ones high exposure. What is called Cmax is the maximum level reached in the sampled fluid or tissue. As usually defined, the half-life is the time needed for the level to fall by half in the phase considered. In turn, `CCCC[C@H](NC(=O)[C@@H]1CCCN1)C(=O)N[C@@H](CCC(=O)O)C(=O)N[C@@H](CCCC)C(=O)N[C@@H](CCCNC(=N)N)C(=O)N[C@H]1CSSC[C@@H]2NC(=O)[C@H](CCCCN)NC(=O)CNC(=O)[C@H](Cc3ccccc3)NC(=O)[C@H]([C@@H](C)CC)NC(=O)[C@H](CO)NC(=O)CNC(=O)[C@H]([C@@H](C)CC)NC(=O)[C@H](C)NC(=O)[C@H](C)NC(=O)[C@H](CC(C)C)NC(=O)[C@@H]3CSSC[C@@H](C(=O)N[C@@H](Cc4ccc(O)cc4)C(=O)N4CCC[C@H]4C(=O)N[C@@H](CCCNC(=N)N)C(=O)O)NC(=O)[C@H](CCCCN)NC(=O)[C@H](CSSC[C@H](NC(=O)[C@H](CCC(=O)O)NC(=O)[C@H](C(C)C)NC(=O)[C@H](CO)NC(=O)[C@H](C)NC(=O)[C@H](Cc4c[nH]cn4)NC1=O)C(=O)N[C@@H](CCCCN)C(=O)N[C@@H](CCC(N)=O)C(=O)N[C@@H](CCCCN)C(=O)N3)NC(=O)[C@H](CCCCN)NC(=O)[C@H](CCCCN)NC(=O)[C@H](CC(N)=O)NC(=O)[C@H](CCCC)NC2=O` [compound 4] (H-P[Nle]E[Nle]RCHASVECKQKCLAAIGSIFGKC[Nle]NKKCKCYPR-OH; disulfide 6-27, 12-32, 16-34) showed an IC50 in data set [6] of 150 pM. In addition, in data set [7], the AUC(0-inf) was 0.138 µM·h, the Cmax was found to be 91.8 nM and the half-life is 2.7 h.

Take `CC[C@H](C)[C@@H]1NC(=O)[C@H](C)NC(=O)[C@H](C)NC(=O)[C@H](CC(C)C)NC(=O)[C@@H]2CSSC[C@@H](C(=O)N[C@@H](Cc3ccc(O)cc3)C(=O)N3CCC[C@H]3C(=O)N[C@@H](CCCNC(=N)N)C(N)=O)NC(=O)[C@H](CCCCN)NC(=O)[C@@H]3CSSC[C@H](NC(=O)[C@H](CCC(=O)O)NC(=O)[C@H](C(C)C)NC(=O)[C@H](CO)NC(=O)[C@H](C)NC(=O)[C@H](CO)NC(=O)[C@@H](NC(=O)[C@H](CCCNC(=N)N)NC(=O)[C@H](CCSC)NC(=O)[C@H](CC(=O)O)NC(=O)[C@H](CCSC)NC(=O)[C@@H](N)CC(N)=O)CSSC[C@H](NC(=O)[C@H](CCCCN)NC(=O)CNC(=O)[C@H](Cc4ccccc4)NC(=O)[C@H]([C@@H](C)CC)NC(=O)[C@H](CO)NC(=O)CNC1=O)C(=O)N[C@@H](CCSC)C(=O)N[C@@H](CC(N)=O)C(=O)N[C@@H](CCCCN)C(=O)N[C@@H](CCCCN)C(=O)N3)C(=O)N[C@@H](CCCCN)C(=O)N[C@@H](CCC(N)=O)C(=O)N[C@@H](CCCCN)C(=O)N2` [compound 56] (H-NMDMRCSASVECKQKCLAAIGSIFGKCMNKKCKCYPR-NH2; disulfide 6-27, 12-32, 16-34): the “Selectivity ratio Kv1.1/Kv1.3” value in data set [1] (setting [8]) was above 27500. The “Selectivity ratio Kv1.2/Kv1.3” value in data set [2] (setting [8]) amounted to 803. Besides, the “Selectivity ratio Kv1.6/Kv1.3” value in data set [3] (setting [8]) is above 27500. In data set [4] (setting [9]), this compound showed a concentration for half-maximal inhibition (IC50) of 690 pM. For the same compound, the “% inhibition of ear thickness (AUC of Δ ear thickness 0-48 hours)” value in data set [5] (setting [10]) was 25.1 (+/−6.3) %.
